These compounds were tested against T1, LPAAT-β (Homo sapiens, UniProt O15120) (assay: LPAAT-β colorimetric assay (DTNB detection of released CoA)). Settings: Sf9 cell membrane overexpressing LPAAT-β; 18:1-CoA and sn-1-18:1 lysoPA; absorbance at 405 nm; read-out: LPAATβ Colorimetric Assay IC50.
T1 construct: the full-length human LPAAT-β cDNA was amplified by PCR; poly-histidine tag (N); made in house; host or cells: Sf9 insect cells (baculovirus, pFastBac HTc); membrane fraction used
T1 sequence (O15120 24-278): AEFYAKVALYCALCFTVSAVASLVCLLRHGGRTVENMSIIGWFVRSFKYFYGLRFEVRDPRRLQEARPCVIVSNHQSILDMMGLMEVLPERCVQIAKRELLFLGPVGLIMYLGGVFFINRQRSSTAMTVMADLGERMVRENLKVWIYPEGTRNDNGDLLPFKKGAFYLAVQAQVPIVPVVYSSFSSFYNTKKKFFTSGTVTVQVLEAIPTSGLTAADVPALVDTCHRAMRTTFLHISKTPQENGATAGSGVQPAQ
Assay type: biochemical
Excerpt: For the construction of Baculovirus expression vectors, the full-length human LPAAT-β cDNA was amplified by PCR from the DNA template pCE9.LPAAT-β (West et al., DNA Cell Biol. 16:691-701 (1997)) using the primers 5′-TGATATCCGAAGAAGATCTTATGGAGCTGTGGCCGTGTC-3′ (olpb1F) and 5′-CAGGCTCTAG ACTACTGGGC CGGCTGCAC-3′ (olpb1R). The ˜870 bp fragment generated was reamplified by PCR using the primers 5′ CCTACGTCG ACATGGAACAAAAATTGATATCCGAAGAAGATC-3′ (olpb2F) and 5′-CAGGCTCTAG ACTACTGGGC CGGCTGCAC-3′ (olpb1R). The ˜890 bp fragment generated was then cleaved with Sal I and Xba I for insertion into pFastBac™ HTc vector (Life Technologies, Gaithersberg, Md.) between the Sal I and Xba I sites for the generation of the plasmid pFB.LPAAT-β. This plasmid was then transformed into E. coli DH10Bac™ (Life Technologies, Gaithersberg, Md.) for the generation of recombinant Bacmid DNA for transfection into HighFive (Invitrogen, San Diego, Calif.) or SF9 insect cells for the production of recombinant Baculovirus stocks using the protocol described in the Bac-to-Bac® Baculovirus Expression System (Life Technologies, Gaithersberg, Md.), a eukaryotic expression system for generating recombinant baculovirus through site-specific transposition in E. coli. Viral stocks harvested from the transfected cells can then be used to infect fresh insect cells for the subsequent expression of LPAAT-β fusion protein with a poly-histidine tag and a myc-epitope near its N-terminus. The membrane fraction from these Sf9 cells would be the source of LPAAT enzyme.
For the preparation of membranes From Sf9 Cells, all steps are performed on ice or at 4° C. Sf9 cell pellets ([…]) were thawed and resuspended in 1-2 ml of buffer A (20 mM Hepes, pH 7.5, 1 mM DTT, 1 mM EDTA, 20% w/v glycerol, 1 mM Benzamidine, 1 μg/ml soybean trypsin inhibitor (SBTI), 1 μg/ml pepstatin A) w/o DTT but with 1 mM Pefabloc. The cells were lysed by sonication using a Branson Sonifier at output=2, duty cycle=2, 10 pulses each at 10 s. with the tip of small sonicator probe submerged but not touching the walls. DTT was then added to 1 mM from a 1M stock. The samples were centrifuged at 1500 rpm for 5 min. The low speed supernatant was saved and centrifuged (TLA 100.3 rotor, polycarbonate tubes, 2 ml/tube or 1.5 ml/tube minimum) at 100000×g for 1 hr. The high speed pellet was resuspend in Buffer A with a probe sonicator (10 pulses @ output #2 and duty cycle 20%) as a source of LPAAT enzyme.
LPAAT-β catalyzes the transfer of an acyl group from a donor such as acyl-CoA to LPA. The transfer of the acyl group from acyl-CoA to LPA leads to the release of free CoA, which can be reacted with the thiol reagent, 5,5′-dithiobis(2-nitrobenzoic acid) (DTNB). The reaction between DTNB and the free sulfhydryl group from CoA generates a yellow-colored product, 3-carboxylato-4-nitrothiophenolate (CNP), that absorbs at 413 nm. LPAAT-β derived from Sf9 cell membrane overexpressing LPAAT-β were resuspended in HEPES saline buffer (20 mM HEPES pH 7.5, 150 mM NaCl), 1 mg/ml BSA and 72 μl aliquots were distributed into 96-well microtiter plates. 8 μl of compound of interest at 200 μM dissolved in 100% DMSO was added into each well. 20 μl of 1 mM 18:1-CoA and 1 mM sn-1-18:1 lysoPA was then added to each well to initiate the reaction and allowed to run at room temperature for 25 min. 100 μl of 1 mM DTNB in 100% ethanol was then added to each well to quench the reaction and for color development. The absorbance at 405 nm, measured using a spectrophotometer plate reader, is proportional to the activity of LPAAT-β in the sample. This calorimetric assay was used for the high throughput screening of LPAAT inhibitors. […] Compounds that gave a reading of less than 0.06 arbitrary units (indicated by arrow on right margin) were selected for further study.

Compound	IC50
CCC(=O)Nc1ccc(Cl)c(-c2nc3ccccc3o2)c1 [CT-32008, N-(3-Benzooxazol-2-yl-4-chloro-phenyl)-propionamide]	900 nM
COC(=O)Nc1ccc(Cl)c(-c2nc3ccccc3o2)c1 [CT-32009, (3-Benzooxazol-2-yl-4-chloro-phenyl)-carbamic Acid Methyl Ester]	500 nM
CCC(=O)Nc1ccc(F)c(-c2nc3cc(C)ccc3o2)c1 [CT-32011, N-(4-Fluoro-3-(5-methyl-benzooxazol-2-yl)-phenyl)-propionamide]	15500 nM
CCC(=O)N(C)c1ccc(Cl)c(-c2nc3cc(C)ccc3o2)c1 [CT-32019, N-(4-Chloro-3-(5-methyl-benzooxazol-2-yl)-phenyl)-N-methyl-propionamide]	12000 nM
CNC(=O)Nc1ccc(Cl)c(-c2nc3cc(C)ccc3o2)c1 [CT-32021, 1-(4-Chloro-3-(5-methyl-benzooxazol-2-yl)-phenyl)-3-methyl-urea]	4000 nM
COC(=O)Nc1ccc(C)c(-c2nc3cc(C)ccc3o2)c1 [CT-32036, (4-Methyl-3-(5-methyl-benzooxazol-2-yl)-phenyl)-carbamic Acid Methyl Ester]	1500 nM
C#CCOC(=O)Nc1ccc(Cl)c(-c2nc3cc(C)ccc3o2)c1 [CT-32037, (4-Chloro-3-(5-methyl-benzooxazol-2-yl)-phenyl)-carbamic Acid Prop-2-ynyl Ester]	190 nM
COC(=O)Nc1ccc(Cl)c(-c2nc3cc(Cl)ccc3o2)c1 [CT-32053, (4-Chloro-3-(5-chloro-benzooxazol-2-yl)-phenyl)-carbamic Acid Methyl Ester]	300 nM
COC(=O)Nc1ccc(Cl)c(-c2nc3cc(C)ccc3n2C)c1 [CT-32061, (4-Chloro-3-(1,5-dimethyl-1H-benzoimidazol-2-yl)-phenyl)-carbamic Acid Methyl Ester]	10800 nM
COC(=O)Nc1ccc(Cl)c(-c2nc3cc(C(F)(F)F)ccc3s2)c1 [CT-32073, (4-Chloro-3-(5-trifluoromethyl-benzothiazol-2-yl)-phenyl)-carbamic Acid Methyl Ester]	200 nM
C#CCOC(=O)Nc1ccc(Cl)c(-c2nc3c(C)cccc3o2)c1 [CT-32079, (4-Chloro-3-(4-methyl-benzooxazol-2-yl)-phenyl)-carbamic acid Prop-2-ynyl Ester]	160 nM
CCC(=O)Nc1ccc(Cl)c(-c2nc3cc(C(F)(F)F)ccc3s2)c1 [CT-32142, N-(4-Chloro-3-(5-trifluoromethyl-benzothiazol-2-yl)-phenyl)-propionamide]	220 nM
CCC(=O)Nc1ccc(Cl)c(-c2nc3cc(Cl)ccc3o2)c1 [CT-32160, N-(4-Chloro-3-(5-chloro-benzooxazol-2-yl)-phenyl)-propionamide]	350 nM
N#CCC(=O)Nc1ccc(Cl)c(-c2nc3cc(Cl)ccc3o2)c1 [CT-32214, N-[4-Chloro-3-(5-chloro-benzooxazol-2-yl)-phenyl]-2-cyano-acetamide]	270 nM
C#CCOC(=O)Nc1ccc(Cl)c(-c2nc3ncccc3o2)c1 [CT-32259, (4-Chloro-3-oxazolo[4,5,b]pyridin-2-yl-phenyl)-carbamic Acid Prop-2-ynyl Ester]	800 nM
C#CCOC(=O)Nc1ccc(C)c(-c2nc3cc(Cl)ccc3s2)c1 [CT-32268, [3-(5-chloro-benzothiazol-2-yl)-4-methyl-phenyl]-carbamic Acid Prop-2-ynyl Ester]	150 nM
N#CCC(=O)Nc1ccc(Cl)c(-c2nc3cccnc3o2)c1 [CT-32271, N-(4-Chloro-3-oxazolo[5,4,b]pyridin-2-yl-phenyl)-2-cyano-acetamide]	190 nM
[N-]=[N+]=NCC(=O)Nc1ccc(Cl)c(-c2nc3cc(Cl)ccc3o2)c1 [CT-32289, 2-Azido-N-[4-chloro-3-(5-chloro-benzooxazol-2-yl)-phenyl]-acetamide]	175 nM
C#CCOC(=O)Nc1ccc(C)c(-c2nc3cccnc3o2)c1 [CT-32290, (4-Methyl-3-oxazolo[5,4,b]pyridin-2-yl-phenyl)-carbamic Acid Prop-2-ynyl Ester]	1200 nM

Compounds with a lower IC50, results first:

IC50	Compound
15 nM	C#CCOC(=O)Nc1ccc(Cl)c(-c2nc3cc(C(F)(F)F)ccc3s2)c1 [CT-32143, (4-Chloro-3-(5-trifluoromethyl-benzothiazol-2-yl)-phenyl)-carbamic Acid Prop-2-ynyl Ester]
50 nM	C#CCOC(=O)Nc1ccc(Cl)c(-c2nc3ccccc3o2)c1 [CT-32154, (3-Benzooxazol-2-yl-4-chloro-phenyl)-carbamic Acid Prop-2-ynyl Ester]
35 nM	C#CCOC(=O)Nc1ccc(Cl)c(-c2nc3cc(Cl)ccc3o2)c1 [CT-32161, (4-Chloro-3-(5-chloro-benzooxazol-2-yl)-phenyl)-carbamic Acid Prop-2-ynyl Ester]
140 nM	C#CCOC(=O)Nc1ccc(Cl)c(-c2nc3cc(C(F)(F)F)ccc3o2)c1 [CT-32173, (4-Chloro-3-(5-trifluoromethyl-benzooxazol-2-yl)-phenyl)-carbamic Acid Prop-2-ynyl Ester]
40 nM	COC(=O)Nc1ccc(Cl)c(-c2nc3cc(Cl)ccc3s2)c1 [CT-32191, [4-Chloro-3-(5-chloro-benzothiazol-2-yl)-phenyl]-carbamic Acid Methyl Ester]
6 nM	C#CCOC(=O)Nc1ccc(Cl)c(-c2nc3cc(Cl)ccc3s2)c1 [CT-32192, (4-Chloro-3-(5-chloro-benzothiazol-2-yl)-phenyl)-carbamic Acid Prop-2-ynyl ester]
40 nM	C#CCOC(=O)Nc1ccc(C)c(-c2nc3cc(C(F)(F)F)ccc3s2)c1 [CT-32203, 4-Methyl-3-(5-trifluoromethyl-benzothiazol-2-yl)-phenyl-carbamic Acid Prop-2-ynyl Ester]
15 nM	N#CCC(=O)Nc1ccc(Cl)c(-c2nc3cc(Cl)ccc3s2)c1 [CT-32242, N-(4-Chloro-3-(5-chloro-benzothiazol-2-yl)-phenyl)-2-cyano-acetamide]
60 nM	C#CCOC(=O)Nc1ccc(Cl)c(-c2nc3cc(Cl)ccc3n2C)c1 [CT-32243, [4-Chloro-3-(5-chloro-1-methyl-1H-benzoimidazol-2-yl)-phenyl]-carbamic Acid Prop-2-ynyl Ester]
25 nM	CC#CCOC(=O)Nc1ccc(Cl)c(-c2nc3cc(Cl)ccc3s2)c1 [CT-32262, (4-Chloro-3-(5-chloro-benzothiazol-2-yl)-phenyl)-carbamic Acid But-2-ynyl Ester]
55 nM	C#CCCOC(=O)Nc1ccc(Cl)c(-c2nc3cc(Cl)ccc3s2)c1 [CT-32277, [4-Chloro-3-(5-chloro-benzothiazol-2-yl)-phenyl]-carbamic Acid But-3-ynyl Ester]
40 nM	C#CCCC(=O)Nc1ccc(Cl)c(-c2nc3cc(Cl)ccc3s2)c1 [CT-32278, Pent-4-ynoic acid [4-chloro-3-(5-chloro-benzothiazol-2-yl)-phenyl]-amide]

Source: patent publication US20020107269A1, “Benzoxazole LPAAT-B inhibitors and uses thereof” (CELL THERAPEUTICS, INC., priority 2000, published 2002)
